Source: patent publication US5834244A, “Factor VIIa inhibitors from Kunitz domain proteins” (Genentech, Inc., priority 1995, dated 1998)
Read-outs that look alike come from different tables or passages of the source. Positions of bridges follow the written chain, without caps; N, C: chain ends. No end group written: not given here.

How the values were obtained:
[1] = test system: Male New Zealand white rabbits; test: Cuticle bleeding time assay; format: in vivo, rabbit; settings: for bleeding compared to the saline control (in words): after 10 minutes
Method: (§1) Male New Zealand white rabbits (~4 kg) were anesthetized to surgical anesthesia plane with an IM injection of Ketamine / Xylaxine. The rabbits were placed supine on a restraining board, warmed to 37° C., and the neck and inner thigh area shaved. Teflon catheters were replaced in a marginal ear vein and femoral artery for drug delivery and sample collection respectively. Prior to treatment, blood samples were collected for coagulation tests (APTT and PT). Bleeding time was assessed from a cut made in the cuticle portion of a hind limb nail. Incisions were made in the neck region and the entire left common carotid artery and its branches were surgically isolated. An ultrasonic flow probe (Transonics®) was placed on the common carotid approximately 5 cm caudal to the common--internal bifurcation. After blood flow reached a stable baseline, drugs (saline or test compounds) were delivered via the marginal ear vein. A deflated embolectomy catheter (Fogarty®, 3F) was then introduced into the lumen of the common via an incision in the lingual branch. Blood flow through the artery was stopped briefly while the catheter was introduced and loosely secured with 2-0 silk tie at the incision site. After the catheter was in place and secure, blood flow was restored. The deflated balloon was advanced to within 2 mm of the flow probe and inflated with saline until resistance of the vessel wall was felt. The catheter was pulled back with a steady motion to the first branch and then deflated. This procedure was repeated a total of six times for each experimental animal, after which the catheter was removed. […] Over 40 minutes, blood samples were taken for APTT and PT measurements, cuticle bleeding times were assessed and blood flow through the carotid monitored. Duration of patency was defined as the total amount of time (maximum=40 minutes) that any measurable blood flow is detected in the artery. Patency rate refers to the percentage of animals tested who had carotid artery blood flow ≥5 minutes. At the end of the experiment the rabbit was euthanized and the carotid artery removed and opened. If any thrombus was present, it was removed, blotted and the weight recorded.
Table 3 below describes the results of the cuticle bleeding time assay at 10 minutes after dosing.

[2] = test system: Male New Zealand white rabbits; test: Rabbit deep medial injury model (carotid artery patency, thrombus weight); format: in vivo; settings: for Clot (mps) / Duration (Min.) of patency: mean ± sem
Method: as §1

TF-FVIIa = target: T1, TF-FVIIa (Homo sapiens, UniProt P08709); test: Enzyme inhibition assay, apparent equilibrium dissociation constant (Ki*) with TF-FVIIa; format: biochemical
T1 construct: is generated by proteolysis of a single peptide bond from its zymogen Factor VII (FVII); purchased Haematologic Technologies Inc. (FVIIa); TF1-243 made in house in E. coli; host or cells: E. coli (TF1-243)
Method: Aliquots (25 μL) from each well of a microtiter plate containing the serially diluted inhibitors were transferred into new microtiter plates, each containing a different protease (100 μL) in the appropriate buffer. The proteases tested (protease concentration, buffer, substrate) were FVIIa (10 nM, Buffer A, 0.7 mM S2366), FXIa (1.0 nM, Buffer B containing 1 mg/ml BSA, 0.7 mM S2366), plasma kallikrein (3.5 nM, Buffer B, 0.5 mM S2302), and plasmin (15 nM, Buffer B, 1 mM S2251).

normal human plasma = test: Activated partial thromboplastin time (APTT) assay, initiated by ellagic acid; format: biochemical
Method: For the activated partial thromboplastin time (APTT) assays, the activation time was set at 120 sec and acquisition time at 300 to 600 sec depending on the expected outcome of the assay. Citrated normal human plasma and inhibitor were incubated together. The sample (plasma and inhibitor) and activator (Instrumentation Laboratories Ellagic acid/Phospholipid mix Test Reagent) were automatically pipetted and incubated together for 2 min at 37° C., then CaCl2 was added and clotting time determined by means of optical assessment. The total incubation time of inhibitor with plasma was ca. 3 min before addition of activator, and 5 min before addition of CaCl2.

rabbit plasma [3] = test: APTT clotting time in rabbit plasma; format: biochemical; settings: 40 μM
Method: (§2) Samples of rabbit plasma were assayed using an MLA 800 coagulometer and Dade reagents. Actin FS® was the activator in the APTT assay. Rabbit Thromboplastin with Ca++ was used for the PT assays; the rabbit thromboplastin was diluted two-fold. All mutant inhibitors tested prolonged clotting by at least one fold. […] A greater than 10 fold prolongation of the clotting time at 40μM was observed.

rabbit plasma [4] = test: PT clotting time in rabbit plasma; format: biochemical; settings: 40 μM
Method: as §2

[5] = Heparin 1: 25 u/kg bolus then 0.5 u/kg/min infusion
[6] = Heparin 2: 25 u/kg bolus then 1 u/kg/min infusion

T1 sequence (P08709 213-466 limits assumed): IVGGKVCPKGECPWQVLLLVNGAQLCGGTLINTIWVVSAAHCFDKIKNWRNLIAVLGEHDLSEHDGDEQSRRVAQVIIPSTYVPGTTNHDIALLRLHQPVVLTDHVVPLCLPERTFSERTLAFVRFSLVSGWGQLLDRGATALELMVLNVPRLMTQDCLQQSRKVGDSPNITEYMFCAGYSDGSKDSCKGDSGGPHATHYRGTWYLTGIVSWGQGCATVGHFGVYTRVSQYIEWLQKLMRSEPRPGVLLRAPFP
T1 sequence (P08709 61-212 limits assumed): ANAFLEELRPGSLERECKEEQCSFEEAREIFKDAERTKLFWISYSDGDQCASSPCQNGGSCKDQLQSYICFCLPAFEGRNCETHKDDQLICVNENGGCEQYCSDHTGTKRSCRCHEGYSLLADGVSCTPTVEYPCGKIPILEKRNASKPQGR
T1 sequence (P13726 33-275 partner limits assumed): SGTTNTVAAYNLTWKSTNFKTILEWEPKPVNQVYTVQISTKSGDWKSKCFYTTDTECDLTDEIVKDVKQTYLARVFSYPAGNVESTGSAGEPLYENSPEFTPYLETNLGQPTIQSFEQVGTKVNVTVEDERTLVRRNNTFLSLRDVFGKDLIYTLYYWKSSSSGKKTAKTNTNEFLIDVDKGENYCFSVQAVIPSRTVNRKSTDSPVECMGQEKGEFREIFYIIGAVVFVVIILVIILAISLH

Q: With `CC[C@H](C)[C@@H]1NC(=O)[C@H](CC(C)C)NC(=O)[C@H](C)NC(=O)[C@H](CCCNC(=N)N)NC(=O)[C@@H]2CSSC[C@@H]3NC(=O)CNC(=O)CNC(=O)[C@H](Cc4ccc(O)cc4)NC(=O)[C@H](Cc4ccccc4)NC(=O)[C@H](Cc4ccccc4)NC(=O)[C@@H]4CCCN4C(=O)[C@H](C)NC(=O)[C@H](CSSC[C@H](NC(=O)[C@H](Cc4ccc(O)cc4)NC(=O)[C@H](CCC(=O)O)NC(=O)[C@H](CCC(=O)O)NC(=O)[C@H]([C@@H](C)O)NC(=O)[C@H](CC(=O)O)NC(=O)[C@H](Cc4ccccc4)NC(=O)[C@H](CC(N)=O)NC(=O)[C@H](CC(N)=O)NC(=O)[C@H](CCCNC(=N)N)NC(=O)[C@H](CC(N)=O)NC(=O)CNC(=O)[C@H](Cc4ccc(O)cc4)NC3=O)C(=O)N[C@@H](C)C(=O)N[C@@H](C)C(=O)N[C@@H](C(C)C)C(=O)N[C@H](C(=O)NCC(=O)N[C@@H](CO)C(=O)N[C@@H](C)C(=O)O)CSSC[C@H](NC(=O)[C@@H](NC(=O)[C@H](CCC(=O)O)NC(=O)[C@H](CCCNC(=N)N)NC(=O)[C@@H](N)C(C)C)C(C)C)C(=O)N[C@@H](CO)C(=O)N[C@@H](CCC(=O)O)C(=O)N[C@@H](CCC(N)=O)C(=O)N[C@@H](C)C(=O)N[C@@H](CCC(=O)O)C(=O)N3CCC[C@H]3C(=O)NCC(=O)N3CCC[C@H]3C(=O)N2)NC(=O)[C@H](CCCCN)NC(=O)CNC(=O)[C@H](CCC(=O)O)NC(=O)[C@H]([C@@H](C)O)NC(=O)[C@H](C(C)C)NC(=O)[C@H](CC(=O)O)NC(=O)[C@H](Cc2ccccc2)NC(=O)[C@H](Cc2ccc(O)cc2)NC(=O)[C@H](Cc2c[nH]c3ccccc23)NC(=O)[C@H](CCCNC(=N)N)NC(=O)[C@H](CC(C)C)NC1=O` [TF7I-C] as the molecule, how does the “bleeding compared to the saline control (in words)” value [1] read?
A: did not induce prolonged bleeding

Q: How did the “Cuticle bleeding time, fold increase over pre dose” value ([1]; 10 minutes after dosing, 2 mg/kg IV bolus) turn out when “VREVCSEQAEPGPCRAMMKRWYFDVTEGKCAPFIYGGCYGNRNNFDTEEYCAAVCGSA (disulfide 5-55, 14-38, 30-51) [IV-49C]” was run?
A: 1.0 ± 1.0 fold

Q: And the “bleeding compared to the saline control (in words)” value [1]?
A: did not induce prolonged bleeding

Q: With Heparin as the molecule, how does the “Patency (%)” value [2, 5] read?
A: 67%

Q: What about the “Clot (mps)” value [2, 5] of the same molecule?
A: 13.6 ± 4.7 mps

Q: And the “Duration (Min.) of patency” value [2, 5]?
A: 23.3 ± 6.7 min

Q: What about the “Patency (%)” value [2, 6] of the same molecule?
A: 100%

Q: What about the “Clot (mps)” value [2, 6] of the same molecule?
A: 19.1 ± 8.5 mps

Q: And the “Duration (Min.) of patency” value [2, 6]?
A: 35.2 ± 2.2 min

Q: And the “patency and clot size compared to the saline control (in words)” value ([2]; rabbit, in vivo)?
A: significantly prolonged patency and reduced clot size

Q: What about the “Cuticle bleeding time, fold increase over pre dose” value ([1]; rabbit, in vivo) of the same molecule?
A: 1.7 ± 0.4 fold

Q: For “APPI: Alzheimer's amyloid β-protein precursor inhibitor, wild type Kunitz domain (58 residues, SEQ ID NO: 34) (VREVCSEQAETGPCRAMISRWYFDVTEGKCAPFFYGGCGGNRNNFDTEEYCMAVCGSA)”, which “inhibition of TF-FVIIa (in words)” value (TF-FVIIa) is on record?
A: moderate inhibitor

Q: And the Ki (TF-FVIIa; FVIIa 10 nM and TF1-243 50 nM, representative of nine (TF7I-C) and seven (APPI) determinations, read-out: Ki* with TF-FVIIa (FIG. 5, representative determination))?
A: 300 nM

Q: And the Ki (TF-FVIIa; FVIIa 10 nM, TF1-243, S2366, pH 7.5, read-out: apparent equilibrium dissociation constant Ki* with TF-FVIIa)?
A: 301 ± 44 nM

Q: What about the “APTT clotting time, fold prolongation” value (normal human plasma; 40 μM inhibitor, uninhibited 31 s) of the same molecule?
A: 3.6 fold

Q: And the “APTT clotting time, fold prolongation” value (normal human plasma; ca. 7 μM inhibitor)?
A: ca. 3 fold

Q: And the “APTT, fold increase over baseline” value (rabbit plasma [3])?
A: 4.9 fold

Q: And the “PT, fold increase over baseline” value (rabbit plasma [4])?
A: 1.4 fold

Q: And the “Patency (%)” value ([2]; 2 mg/kg IV bolus, animals with carotid blood flow ≥5 minutes)?
A: 40%

Q: What about the “Duration (Min.) of patency” value ([2]; 2 mg/kg IV bolus, maximum 40 minutes) of the same molecule?
A: 13.4 ± 8.5 min

Q: And the “Clot (mps)” value ([2]; 2 mg/kg IV bolus, thrombus weight)?
A: 49.5 ± 18.2 mps

Q: And the “Cuticle bleeding time, fold increase over pre dose” value ([1]; rabbit, in vivo, iv, 2 mg/kg)?
A: 2.2 ± 0.6 fold
